According to ChEMBL document CHEMBL4665642, “Anticancer profile of newly synthesized BRAF inhibitors possess 5-(pyrimidin-4-yl)imidazo[2,1-b]thiazole scaffold” (Bioorg Med Chem, 2019):

Legend:
L132 = assay: Cytotoxicity against human L132 cells assessed as reduction in cell viability by MTT assay; format: cell-based
A-375 = assay: Cytotoxicity against human A-375 cells assessed as reduction in cell viability by MTT assay; format: functional, cell-based
SK-MEL-28 = assay: Cytotoxicity against human SK-MEL-28 cells assessed as reduction in cell viability by MTT assay; format: functional, cell-based
[1] = biological target: Serine/threonine-protein kinase B-raf (Homo sapiens, UniProt P15056); assay: Inhibition of human BRAF using MEK1 as substrate by […] assay
[2] = biological target: RAF proto-oncogene serine/threonine-protein kinase (Homo sapiens, UniProt P04049); assay: Inhibition of human CRAF using MEK1 as substrate by [gamma-33P]-ATP assay
[3] = biological target: Serine/threonine-protein kinase B-raf (Homo sapiens, UniProt P15056, V600E); assay: Inhibition of human BRAF V600E mutant using MEK1 as substrate by […] assay
Serine/threonine-protein kinase B-raf (Homo sapiens, UniProt P15056, V600E), sequence (P15056 2-766 V600E limits assumed): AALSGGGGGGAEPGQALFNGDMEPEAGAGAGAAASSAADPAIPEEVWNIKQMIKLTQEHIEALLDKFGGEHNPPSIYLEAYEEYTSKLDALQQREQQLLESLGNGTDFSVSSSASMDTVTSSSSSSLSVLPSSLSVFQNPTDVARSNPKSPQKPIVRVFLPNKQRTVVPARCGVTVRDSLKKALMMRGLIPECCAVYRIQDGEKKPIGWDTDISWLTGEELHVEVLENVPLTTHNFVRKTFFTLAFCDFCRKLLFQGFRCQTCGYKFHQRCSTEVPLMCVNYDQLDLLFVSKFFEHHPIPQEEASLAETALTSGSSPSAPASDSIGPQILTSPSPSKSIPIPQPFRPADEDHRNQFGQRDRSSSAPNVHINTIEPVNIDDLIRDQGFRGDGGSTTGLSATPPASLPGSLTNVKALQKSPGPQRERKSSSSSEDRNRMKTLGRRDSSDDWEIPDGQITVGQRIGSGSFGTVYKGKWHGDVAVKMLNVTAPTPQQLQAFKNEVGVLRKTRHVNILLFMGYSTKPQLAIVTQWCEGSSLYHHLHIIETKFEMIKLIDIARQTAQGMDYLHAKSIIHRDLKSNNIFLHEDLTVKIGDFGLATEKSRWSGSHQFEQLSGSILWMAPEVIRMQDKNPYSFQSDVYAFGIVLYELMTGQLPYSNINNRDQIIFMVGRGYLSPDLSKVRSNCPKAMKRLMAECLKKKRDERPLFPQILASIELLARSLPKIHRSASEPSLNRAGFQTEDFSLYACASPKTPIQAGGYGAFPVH

RAF proto-oncogene serine/threonine-protein kinase, sequence (P04049 whole entry): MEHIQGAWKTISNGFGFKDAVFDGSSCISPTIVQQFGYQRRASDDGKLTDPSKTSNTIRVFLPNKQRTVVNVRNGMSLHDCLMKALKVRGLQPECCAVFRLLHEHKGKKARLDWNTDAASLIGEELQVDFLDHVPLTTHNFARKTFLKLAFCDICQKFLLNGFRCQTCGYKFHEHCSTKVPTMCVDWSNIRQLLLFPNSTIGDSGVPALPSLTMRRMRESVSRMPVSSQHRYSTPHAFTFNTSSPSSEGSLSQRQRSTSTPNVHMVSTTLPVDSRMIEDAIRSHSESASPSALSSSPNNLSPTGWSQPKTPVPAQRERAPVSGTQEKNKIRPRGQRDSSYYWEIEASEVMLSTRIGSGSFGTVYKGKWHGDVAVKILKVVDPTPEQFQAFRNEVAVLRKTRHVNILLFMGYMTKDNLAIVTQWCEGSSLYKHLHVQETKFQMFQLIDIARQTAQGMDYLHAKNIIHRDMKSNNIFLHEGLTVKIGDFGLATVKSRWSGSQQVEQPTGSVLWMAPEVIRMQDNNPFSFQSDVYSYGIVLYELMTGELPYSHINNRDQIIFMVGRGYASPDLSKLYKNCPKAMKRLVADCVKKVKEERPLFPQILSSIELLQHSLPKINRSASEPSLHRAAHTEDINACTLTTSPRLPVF
Serine/threonine-protein kinase B-raf (Homo sapiens, UniProt P15056), sequence (P15056 whole entry): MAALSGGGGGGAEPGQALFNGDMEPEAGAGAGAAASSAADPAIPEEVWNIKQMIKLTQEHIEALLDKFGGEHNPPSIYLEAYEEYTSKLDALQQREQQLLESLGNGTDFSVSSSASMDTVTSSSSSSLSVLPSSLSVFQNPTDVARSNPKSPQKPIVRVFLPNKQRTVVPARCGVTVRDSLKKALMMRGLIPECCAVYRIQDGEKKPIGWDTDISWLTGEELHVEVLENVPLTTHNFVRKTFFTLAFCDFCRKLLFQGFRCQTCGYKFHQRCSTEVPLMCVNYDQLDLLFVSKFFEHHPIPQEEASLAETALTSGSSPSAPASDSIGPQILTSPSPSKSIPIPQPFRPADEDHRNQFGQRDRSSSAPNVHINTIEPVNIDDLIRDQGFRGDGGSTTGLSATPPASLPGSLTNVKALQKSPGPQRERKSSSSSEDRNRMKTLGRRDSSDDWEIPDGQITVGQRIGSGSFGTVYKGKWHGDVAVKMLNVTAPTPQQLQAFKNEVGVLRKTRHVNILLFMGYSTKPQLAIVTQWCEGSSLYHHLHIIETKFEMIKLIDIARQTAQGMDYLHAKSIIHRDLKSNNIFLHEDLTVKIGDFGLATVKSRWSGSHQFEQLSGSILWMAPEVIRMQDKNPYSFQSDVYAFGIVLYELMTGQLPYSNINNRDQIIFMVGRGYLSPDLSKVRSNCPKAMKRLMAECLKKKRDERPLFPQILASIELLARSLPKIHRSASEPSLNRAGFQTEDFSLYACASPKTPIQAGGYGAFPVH

| SMILES | IC50 (L132) | IC50 (A-375) | IC50 (SK-MEL-28) | IC50 [1] | IC50 [2] | IC50 [3] |
| --- | --- | --- | --- | --- | --- | --- |
| Cc1ccc(C(=O)NCCNc2nccc(-c3c(-c4cccc(F)c4)nc4sccn34)n2)cc1 | 245 µM | 5.88 µM | 18.8 µM | – | – | – |
| O=C(NCCCNc1nccc(-c2c(-c3cccc(F)c3)nc3sccn23)n1)c1ccc(Cl)cc1 | – | 13.7 µM | > 20 µM | – | – | – |
| Cc1ccc(S(=O)(=O)NCCNc2nccc(-c3c(-c4cccc(F)c4)nc4sccn34)n2)cc1 | – | 15.4 µM | > 20 µM | – | – | – |
| COc1ccc(S(=O)(=O)NCCCNc2nccc(-c3c(-c4cccc(F)c4)nc4sccn34)n2)cc1 | – | 5.51 µM | 8.98 µM | 0.0551 µM | 0.0261 µM | 0.0251 µM |
| CNC(=O)c1cc(Oc2ccc(NC(=O)Nc3ccc(Cl)c(C(F)(F)F)c3)cc2)ccn1 [SORAFENIB] | – | 7.88 µM | 9.45 µM | – | – | – |
